We go through 17 compounds from ChEMBL document CHEMBL1140287, “Reversion of human Pgp-dependent multidrug resistance by new sesquiterpenes from Zinowiewia costaricensis” (J Med Chem, 2005).

The test system of experiment [1] is NIH3T3.
Experiment [2] deals with NIH3T3. This is another data set of the same source.
Experiment [3] relates to NIH3T3. The source holds these as a separate data set.
Experiment [4] concerns NIH3T3. The source holds these as a separate data set.
Experiment [5] has as its system NIH3T3. This is another data set of the same source.
Experiment [6] relates to NIH3T3. The source holds these as a separate data set.
Experiment [7] relates to NIH3T3. The experiment can be described thus: Concentration of compound inhibiting Pgp-mediated DNM transport in NIH3T3 cells transfected with human MDR1 protein. The experiment is classed as functional, cell-based.

Regarding `CC(=O)OC[C@]12[C@@H](OC(=O)c3ccccc3)[C@@H](OC(=O)c3ccccc3)[C@@H]3[C@@H](OC(C)=O)[C@]1(OC3(C)C)[C@@](C)(O)C[C@H](OC(C)=O)[C@@H]2OC(C)=O`, the Reversal ability came out at 10.78 in the experiment on NIH3T3 [1]; 6.23 in the experiment with NIH3T3 [2]; 102.17 with NIH3T3 [3]; 11.13 in the experiment on NIH3T3 [4]; 4.26 in the experiment with NIH3T3 [5]; 233.6 in the experiment on NIH3T3 [6]. The same compound displayed a Ki with NIH3T3 [7] of 1.74 µM.

As to `CC(=O)OC[C@]12[C@@H](OC(=O)c3ccccc3)[C@@H](OC(=O)c3ccccc3)[C@@H]3[C@@H](OC(C)=O)[C@]1(OC3(C)C)[C@H](C)C[C@H](OC(C)=O)[C@@H]2OC(C)=O`, the inhibition constant Ki with NIH3T3 [7] is 1.71 µM.

Consider `CC(=O)OC[C@]12[C@H](OC(=O)c3ccccc3)C(=O)[C@@H]3[C@@H](OC(C)=O)[C@]1(OC3(C)C)[C@@](C)(O)C[C@H](OC(=O)c1ccccc1)[C@@H]2OC(=O)c1ccccc1`, for which the Reversal ability in the experiment on NIH3T3 [1] turned out to be 15.41; in the experiment with NIH3T3 [2], 7.31; with NIH3T3 [3], 8.09; in the experiment on NIH3T3 [4], 16.64; with NIH3T3 [5] it was 9.93; with NIH3T3 [6], 33.1. In the experiment on NIH3T3 [7], this compound gave a Ki of 1.03 µM.

Regarding `CC(=O)OC[C@]12[C@@H](OC(=O)c3ccccc3)C[C@@H]3[C@@H](OC(C)=O)[C@]1(OC3(C)C)[C@H](C)C[C@H](OC(C)=O)[C@@H]2OC(C)=O`, the affinity in the experiment with NIH3T3 [7] corresponds to a Ki of 2.36 µM.

With `CC(=O)OC[C@]12[C@H](OC(C)=O)C(=O)[C@@H]3[C@@H](OC(C)=O)[C@]1(OC3(C)C)[C@@](C)(O)[C@@H](OC(C)=O)[C@H](OC(C)=O)[C@@H]2OC(=O)c1ccccc1`, the affinity with NIH3T3 [7], expressed as Ki, was 6.52 µM.

Turning to `CC(=O)O[C@@H]1[C@H]2[C@H](O)[C@H](OC(=O)c3ccccc3)[C@]3(C)[C@@H](OC(=O)c4ccccc4)[C@@H](OC(=O)c4ccccc4)C[C@](C)(O)[C@@]13OC2(C)C`, the Reversal ability in the experiment on NIH3T3 [1] was determined as 11.13; in the experiment with NIH3T3 [2], 5.38; in the experiment on NIH3T3 [3], 41.23; in the experiment on NIH3T3 [4], 15.86; with NIH3T3 [5], 6.32; with NIH3T3 [6], 57.32. In the experiment on NIH3T3 [7], this compound had a Ki of 1.21 µM.

As for `CC(=O)OC[C@]12[C@H](OC(=O)c3ccccc3)C(=O)[C@@H]3[C@@H](OC(C)=O)[C@]1(OC3(C)C)[C@H](C)C[C@H](OC(C)=O)[C@@H]2OC(=O)c1ccccc1`, the Reversal ability came out at 6.21 in the experiment with NIH3T3 [1]; 5.72 with NIH3T3 [2]; 213.64 in the experiment with NIH3T3 [3]; 11.75 with NIH3T3 [4]; 4.21 in the experiment with NIH3T3 [5]; 233.37 in the experiment with NIH3T3 [6]. Affinity with NIH3T3 [7] was put at a Ki of 1.63 µM.

Compound `CC(=O)OC[C@]12[C@H](OC(C)=O)C(=O)[C@@H]3[C@@H](OC(C)=O)[C@]1(OC3(C)C)[C@H](C)C[C@H](OC(C)=O)[C@@H]2OC(=O)c1ccccc1` registered a Ki with NIH3T3 [7] of 5.74 µM.

In the experiment on NIH3T3 [7], `CC(=O)OC[C@]12[C@@H](OC(=O)c3ccccc3)C[C@@H]3[C@@H](OC(C)=O)[C@]1(OC3(C)C)[C@@](C)(O)C[C@H](OC(C)=O)[C@@H]2OC(C)=O` displayed a Ki of 4.39 µM.

`CC(=O)O[C@H]1C[C@](C)(O)[C@]23OC(C)(C)[C@H]([C@H](OC(=O)c4ccccc4)[C@H](OC(=O)c4ccccc4)[C@]2(C)[C@H]1OC(=O)c1ccccc1)[C@H]3OC(C)=O`: the Reversal ability worked out at 9.55 in the experiment with NIH3T3 [1]; 16.55 in the experiment with NIH3T3 [2]; 87.04 in the experiment with NIH3T3 [3]; 12.72 in the experiment with NIH3T3 [4]; 8.26 in the experiment on NIH3T3 [5]; 90.39 with NIH3T3 [6]. This compound also registered a Ki with NIH3T3 [7] of 0.913 µM.

For the compound `COc1ccc(CCN(C)CCCC(C#N)(c2ccc(OC)c(OC)c2)C(C)C)cc1OC` (configuration not stated), the Reversal ability was 9.55 in the experiment on NIH3T3 [1]; 6.21 with NIH3T3 [2]; 13.18 in the experiment with NIH3T3 [3]; 10.2 in the experiment on NIH3T3 [4]; 6.12 in the experiment with NIH3T3 [5]; 18.76 in the experiment on NIH3T3 [6].

In the case of `CC(=O)O[C@H]1C[C@](C)(O)[C@]23OC(C)(C)[C@H]([C@H](OC(=O)c4ccccc4)[C@H](OC(=O)c4ccccc4)[C@]2(CO)[C@H]1OC(C)=O)[C@H]3OC(C)=O`, the affinity with NIH3T3 [7] corresponds to a Ki of 7.04 µM.

Turning to `CC(=O)OC[C@]12[C@H](OC(C)=O)C(=O)[C@@H]3[C@@H](OC(C)=O)[C@]1(OC3(C)C)[C@H](C)C[C@H](OC(C)=O)[C@@H]2OC(C)=O`, in the experiment with NIH3T3 [7], the affinity corresponds to a Ki of 9.83 µM.

Compound `CC(=O)OC[C@]12[C@H](OC(=O)c3ccccc3)C(=O)[C@@H]3[C@@H](OC(C)=O)[C@]1(OC3(C)C)[C@@](C)(O)C[C@H](OC(C)=O)[C@@H]2OC(=O)c1ccccc1` gave a Ki with NIH3T3 [7] of 3.01 µM.

In turn, `CC(=O)OC[C@]12[C@H](OC(=O)c3ccccc3)C(=O)[C@@H]3[C@@H](O)[C@]1(OC3(C)C)[C@@](C)(O)C[C@H](OC(C)=O)[C@@H]2OC(=O)c1ccccc1` had a Ki with NIH3T3 [7] of 3.97 µM.

Take `CC(=O)OC[C@]12[C@H](OC(=O)c3ccccc3)C(=O)[C@@H]3[C@@H](OC(C)=O)[C@]1(OC3(C)C)[C@H](C)C[C@H](OC(C)=O)[C@@H]2OC(C)=O`: in the experiment with NIH3T3 [7], the Ki was 2.54 µM.

`CC(=O)OC[C@]12[C@H](OC(=O)c3ccccc3)C(=O)[C@@H]3[C@@H](OC(C)=O)[C@]1(OC3(C)C)[C@H](C)C[C@H](OC(C)=O)[C@@H]2O`: affinity in the experiment with NIH3T3 [7] was put at a Ki of 18.4 µM.

As usually defined, the Ki is a measure of affinity in units of concentration, obtained from inhibition or displacement. Low values mean tighter binding, high ones weaker binding.
